Experimental data from paper PMC11120720, “Linking Variability in Phytochemical Composition with Safety Profile of Thymus carnosus Boiss. Extracts: Effect of Major Compounds and Evaluation of Markers of Oxidative Stress and Cell Death” (International Journal of Molecular Sciences, 2024).
Read-outs that look alike come from different tables or passages of the source.

Key:
HepG2 cells [1] = experiment: Intracellular ROS (DCFDA, flow cytometry), HepG2; format: cell-based, human; settings: compound 50 µM, 24 h
Procedure: (§1) The cells were then equally divided for each assay.
(§2) Intracellular ROS level assessment was performed as described by Silva et al., 2022 [65], using dichlorodihydrofluorescein diacetate (DCFDA). Cells obtained in the previous step were centrifuged, the supernatant discarded, and 200 µL of DCFDA (10 µM in FBS-free DMEM) was added. Cells were incubated for 45 min (37 °C, in the dark), washed to remove excess probe, and resuspended in PBS for data acquisition.

Caco-2 cells [2] = experiment: Annexin V-FITC/PI apoptosis/necrosis, Caco-2; format: cell-based; settings: compound 50 µM, 24 h
Procedure: as §1
(§3) For the assessment of apoptotic/necrotic cell death, an Annexin V-FITC (Thermo Fisher Scientific, Waltham, MA, USA) and propidium iodide (PI; Merck, Darmstadt, Germany) double-staining assay was used to evaluate the apoptotic/necrotic cell death induced by T. carnosus extracts and by individual phytochemicals, as described previously. Briefly, after detachment and washing, the supernatant was discarded, and 200 µL of Annexin V-FITC (1:200 dilution in Annexin-binding buffer [10 mM HEPES sodium salt, 150 mM NaCl, 5 mM KCl, 5 mM MgCl2, and 1.8 mM CaCl2; pH = 7.4]) was added. Cells were incubated for 20 min (room temperature, in the dark). After incubation, 5 µL of propidium iodide (PI; 50 µg/mL) was added, the cells were incubated for 5 min on ice (in the dark), and the data were acquired.

[3] = tested on: HCT-116 human colorectal carcinoma cells; settings: cited from earlier work
HepG2 cells [4] = experiment: Mitochondrial membrane potential (JC-1, flow cytometry), HepG2; format: cell-based, human; settings: compound 50 µM, 24 h
Procedure: (§4) Flow cytometry was used to analyze the effect of T. carnosus extracts on intracellular ROS, modulation of mitochondrial membrane potential (MMP), cell cycle arrest, and apoptotic/necrotic cell death induction.
(§5) Both one- and two-color assays were performed using a BD Accuri™ C6 cytometer (Becton Dickinson, Franklin Lakes, NJ, USA), and 10,000 gated events were collected from each sample [1]. For flow cytometry assays, cells were handled as described previously but seeded at a density 5 × 10^4 cells/mL (750 μL/well) in 12-well plates. Caco-2 and HepG2 cells were incubated for 24 h with the extracts (100 µg/mL) or individual phytochemicals (50 µM) diluted in FBS-free culture media h. After incubation, test solutions were removed; the cells were washed with PBS and detached from the plates using trypsin-EDTA. Once transferred to centrifuge tubes, the cells were centrifuged (bench micro-centrifuge; 3000 rpm; 3 min), the supernatant was discarded, and a new wash cycle was performed. The cells were then equally divided for each assay. A negative control was used in all assays consisting of nonexposed cells incubated only with culture media.
(§6) Mitochondrial membrane potential (MMP) was evaluated using 5,5″,6,6″-tetrachloro-1,1″,3,3″-tetraethylbenzimidazolylcarbocyanineiodide (JC-1). Cells were processed as described for DCFDA but incubated with 200 µL of JC-1 (2 µM, in FBS-free DMEM) for 20 min (37 °C, in the dark).

Caco-2 cells [5] = experiment: Alamar Blue cell viability assay, Caco-2; format: cell-based, human; settings: for IC50: Homo sapiens, Caco-2
Procedure: (§7) The safety profile of T. carnosus AD and HE extracts was evaluated in Caco-2 and HepG2 cells using an Alamar Blue® (Invitrogen; Alfagene, Lisboa, Portugal) assay. An initial screening was performed for all extracts at concentrations ranging between 100 and 1000 µg/mL. Due to the higher toxicity of the HE extracts, which was previously described for various extracts of Thymus species using the same extraction methods (e.g., T. mastichina and Thymus zygis), a different set of concentrations was used for the HE extracts (between 100 and 300 µg/mL for Caco-2 cells and 50 and 150 µg/mL for HepG2 cells). Figure 1 presents the data related to the cell viability assays in Caco-2 (panels A–E) and HepG2 cells (panels F–J) exposed to T. carnosus extracts, as indicated.
(§8) The safety profile of T. carnosus extracts was assessed in Caco-2 and HepG2 cells. Caco-2 (human colon adenocarcinoma cell line) were obtained from CLS (Cell Lines Service, Eppelheim, Germany), and HepG2 (human hepatocellular carcinoma cell line) were obtained from ATCC (American Type Culture Collection, Manassas, VA, USA).
(§9) Cell culture maintenance, handling, subculturing, and seeding were performed as described by Silva et al., 2020 [5], and cell viability was assessed using an Alamar Blue® assay, as described by Andreani et al., 2014 [64]. Concentrations ranged between 100 and 1000 µg/mL for AD extracts in both cell lines and 100 to 300 µg/mL or 50 to 150 µg/mL for HE extracts in Caco-2 and HepG2 cells, respectively. The effect of individual compounds on cell viability was assessed for concentrations ranging from 50 to 300 µM. All test solutions were prepared by diluting the samples in FBS-free culture media from the stock solutions described in Section 3.2, just prior to being used.
(§10) The results are presented as mean ± SD of at least three independent assays. The calculation of IC50 values was performed as described by Silva et al., 2020 [5]. Data analysis, graphical design, and statistical analysis were performed using Microsoft Office Excel (Professional Plus 2019; Microsoft Corporation, Washington, DC, USA) and GraphPad Prism (Version 8; GraphPad Software Inc., San Diego, CA, USA). Flow cytometry data analysis was performed using BD Accuri™ C6 Software, version 1.0.264.21 (Becton Dickinson, San Diego, CA, USA).

[6] = Alamar Blue cell viability assay, Caco-2; format: cell-based, human; settings: human, Caco-2
Procedure: as §7, §8, §9, §10

Caco-2 cells [7] = settings: cited from earlier work
HepG2 cells [8] = settings: cited from earlier work
HepG2 cells [9] = experiment: Annexin V-FITC/PI apoptosis/necrosis, HepG2; format: cell-based, human; settings: compound 50 µM, 24 h
Procedure: as §1, §3

Caco-2 cells [10] = experiment: Cell cycle arrest (PI, flow cytometry), Caco-2; format: cell-based; settings: compound 50 µM, 24 h
Procedure: as §1
(§11) Cell cycle arrest assessment was performed as described in [1]. Cells were processed as described above until cell detachment and centrifuged, after which the second washing step was performed with ice-cold PBS (0 °C). After centrifugation, the supernatant was discarded, and cells were fixed with 500 µL of ethanol:PBS solution (70:30, % v/v, previously cooled at −20 °C) for at least 4 h at −20 °C. After fixation, two washing cycles were performed: the first with ice-cold PBS (0 °C) and the second with room-temperature PBS, followed by the addition of 200 µL of a PBS solution containing PI (50 µg/mL), RNAse A (50 µg/mL), and Triton X-100 (0.1%). Cells were incubated for 30 min at 37 °C, and then cells were washed once with PBS to remove the staining solution. After resuspension in PBS, the data were acquired.

Caco-2 cells [11] = experiment: Intracellular ROS (DCFDA, flow cytometry), Caco-2; format: cell-based; settings: compound 50 µM, 24 h
Procedure: as §1, §2

[12] = tested on: colorectal cancer cell line CT26; design: method as in PMID 29459827; settings: cited from earlier work
HepG2 cells [13] = experiment: Alamar Blue cell viability assay, HepG2; format: cell-based, human; settings: for IC50: Homo sapiens, HepG2
Procedure: as §7, §8, §9, §10

[14] = Alamar Blue cell viability assay, HepG2; format: cell-based, human; settings: human
Procedure: as §7, §8, §9, §10

HepG2 cells [15] = experiment: Cell cycle arrest (PI, flow cytometry), HepG2; format: cell-based, human; settings: compound 50 µM, 24 h
Procedure: as §1, §11

Caco-2 cells [16] = settings: compound 50 µM, 24 h
Procedure: as §4, §5, §6

[17] = tested on: human small cell lung cancer cells (SCLCs); design: method as in doi:10.4314/tjpr.v14i8.11; settings: 50 and 100 µM; cited from earlier work
[18] = tested on: human lung cancer (A549) cells; settings: cited from earlier work
[19] = tested on: human prostate carcinoma (DU 145) cells; settings: cited from earlier work
[20] = tested on: NPC-39 nasopharyngeal carcinoma cells; design: method as in PMID 31981746; settings: 50 µM; cited from earlier work
[21] = tested on: human lung adenocarcinoma (H1975) cells; settings: cited from earlier work
[22] = tested on: DLD-1, Dukes-type C colorectal adenocarcinoma; settings: cited from earlier work
[23] = tested on: HONE-2 nasopharyngeal carcinoma cells; design: method as in PMID 31981746; settings: 50 µM; cited from earlier work
HeLa cells = settings: cited from earlier work
[24] = tested on: murine melanoma cells (B16-BL6 cells); design: method as in PMID 15538571; settings: cited from earlier work
[25] = tested on: human prostate cancer cells; design: method as in PMID 29898731; settings: 40 µM; cited from earlier work
[26] = 24 h exposure, read-out: IC50 (µM) - Caco-2 cells: 24 h
[27] = 48 h exposure, read-out: IC50 (µM) - Caco-2 cells: 48 h
[28] = 24 h exposure, read-out: IC50 (µM) - HepG2 cells: 24 h
[29] = 48 h exposure, read-out: IC50 (µM) - HepG2 cells: 48 h

SMILES: O=C(/C=C/c1ccc(O)c(O)c1)O[C@H](Cc1ccc(O)c(O)c1)C(=O)O [Rosmarinic acid]
- change in intracellular ROS, HepG2 (HepG2 cells [1]): significant (p < 0.05) increase in intracellular HepG2 ROS levels
- cell death induction, Caco-2 (Caco-2 cells [2]): significant increase in both late apoptosis and necrosis
- cell cycle effect, HCT-116 [3]: cell cycle arrest in G0/G1
- MMP modulation, HepG2 (HepG2 cells [4]): slight decrease in MMP
- IC50 (Caco-2 cells [5]; [26]): > 300 µM
- IC50 (Caco-2 cells [5]; [27]): > 300 µM
- viability at 24 h, 300 µM [6]: 87.8%
- viability at 48 h, 300 µM [6]: 72.6%
- concentrations that did not reduce Caco-2 cell viability (Caco-2 cells [7]; Caco-2): ≤ 90 µM
- concentrations giving significant reduction in HepG2 cell viability (HepG2 cells [8]): ≥ 34.69 µM
- IC50 (HepG2 cells [8]; read-out: IC50 (48 h), HepG2 cells, 48 h): 91 µM
- cell death induction, HepG2 (HepG2 cells [9]): necrosis in HepG2 cells
- cell cycle effect, Caco-2 (Caco-2 cells [10]): cell cycle arrest in G0/G1
- change in intracellular ROS, Caco-2 (Caco-2 cells [11]): neither RA nor eriodictyol induced ROS increases
- cell cycle effect, CT26 [12]: cell cycle arrest in G0/G1
- IC50 (HepG2 cells [13]; [28]): > 300 µM
- IC50 (HepG2 cells [13]; [29]): > 300 µM
- viability at 24 h, 300 µM [14]: 65.2%
- cell cycle effect, HepG2 (HepG2 cells [15]): induced cell cycle arrest in both cell lines but in different phases

SMILES: O=C(/C=C/c1ccc(O)c(O)c1/C=C/c1ccc(O)c(O)c1)O[C@H](Cc1ccc(O)c(O)c1)C(=O)O [Salvianolic acid A, salvianolic acid A]
- MMP modulation, Caco-2 (Caco-2 cells [16]): significant loss of MMP
- concentrations with no or low cytotoxicity, HCT-116 [3]: up to 50 µM
- MMP modulation, SCLC cells [17]: loss of MMP
- IC50 (Caco-2 cells [5]; [26]): > 300 µM
- IC50 (Caco-2 cells [5]; [27]): > 300 µM
- viability at 48 h, 300 µM [6]: 54.4%
- IC50 [18]: ≤ 30 µM
- IC50 [19]: ≤ 30 µM
- effect on cell viability, NPC-39 [20]: no reduction in cell viability
- IC50 [21]: ≤ 30 µM
- concentrations with no or low cytotoxicity, DLD-1 [22]: up to 50 µM
- effect on cell viability, HONE-2 [23]: no reduction in cell viability
- IC50 (HeLa cells): ≤ 30 µM
- IC50 (HepG2 cells [13]; [28]): > 300 µM
- IC50 (HepG2 cells [13]; [29]): > 300 µM

SMILES: O=c1c(O)c(-c2ccc(O)c(O)c2)oc2cc(O)cc(O)c12 [Quercetin, quercetin]
- change in intracellular ROS, HepG2 (HepG2 cells [1]): significant increase in ROS
- % of healthy Caco-2 cells (Caco-2 cells [2]): ~ 86%
- cell death induction, Caco-2 (Caco-2 cells [2]): shift in the cell distribution into late apoptosis
- MMP modulation, B16-BL6 [24]: loss of MMP
- MMP modulation, HepG2 (HepG2 cells [4]): did not induce variations in the MMP
- concentrations giving significant decrease in Caco-2 cell viability (Caco-2 cells [5]; 24 h): ≥ 75 µM
- IC50 (Caco-2 cells [5]; [26]): > 300 µM
- IC50 (Caco-2 cells [5]; [27]): 109 µM
- viability at 48 h, 50 µM ([6]; 50 µM, 48 h, Figure 2E): 77.6%
- viability at 48 h ([6]; 50-100 µM, 48 h, read-out: cell viability, Caco-2): ≥ 68%
- viability at 24 h ([6]; concentrations up to 200 µM, 24 h, Figure 2E): ~90%
- cell viability, Caco-2 (Caco-2 cells [7]; 50 µM, 48 h): 75–80%
- effect on Caco-2 cell viability (Caco-2 cells [7]; 100 µM, 24 h): no changes in cell viability
- concentrations reducing HepG2 cell viability (HepG2 cells [8]; 24 h of exposure): ≥ 33 µM
- % of healthy HepG2 cells (HepG2 cells [9]): ~ 76%
- cell death induction, HepG2 (HepG2 cells [9]): shift in the cell population to both early and late apoptosis
- MMP modulation, prostate cancer cells [25]: loss of MMP
- cell cycle effect, Caco-2 (Caco-2 cells [10]): cell cycle arrest in the S and G2/M phases
- concentrations reducing HepG2 cell viability (HepG2 cells [13]; 50 µM = lowest concentration tested, Figure 2M): ≥ 50 µM
- IC50 (HepG2 cells [13]; [28]): 141 µM
- IC50 (HepG2 cells [13]; [29]): 10.1 µM
- viability at 48 h ([14]; HepG2 cells, 50-100 µM, 48 h): ≤ 20%
- cell cycle effect, HepG2 (HepG2 cells [15]): cell cycle arrest was observed in the G0/G1 phase
